One compound from US20240398768A1, “METHODS OF TREATING SOLID TUMOR USING HETEROAROMATIC MACROCYCLIC ETHER COMPOUNDS” (Nuvalent, Inc., priority 2021, published 2024) can be followed below.

This assay relates to NIH3T3 cells expressing ROS1 fusions with G2032R. Put plainly: Anchorage-independent colony formation assay. The class given is cell-based. The following applies: at 100 nM. The protocol: Each inhibitor was paired with its own DMSO condition to serve as an accurate control. NIH3T3 cells expressing CD74-ROS1 or EZR-ROS1 wild-type or mutant fusions were plated in 0.4% agarose in complete medium at a density of 2,000 cells per 0.5 mL of agarose with DMSO or inhibitor at identical concentration to the bottom layer. Plates were incubated for 4 weeks, and each well was fed 3× per week with 75 μL of complete medium with or without inhibitor to match each plated condition to prevent drying of the agarose. Plates were read after 3 and 4 weeks using a GelCount™ (Oxford Optronix). Colony counts were averaged by condition and normalized to the colony counts from paired DMSO conditions. Data analysis and visualization was performed using Microsoft Excel and GraphPad Prism.

As to `CN1CCN(c2ccc(C(=O)Nc3n[nH]c4ccc(Cc5cc(F)cc(F)c5)cc34)c(NC3CCOCC3)c2)CC1` [Entrectinib, reference compound], the “inhibition of colony formation” value is “weaker effects”.
